Literature values in patent US20050004194A1, “Use of organic compounds” (priority 2003, published 2005).

Legend:
[1] = elderly heart failure patients, losartan versus captopril 50 mg t.i.d.
[2] = SAVE trial, patients after MI, captopril versus placebo

SMILES	primary objective: tolerability and increase in serum creatinine [1]	all-cause mortality ([1]; 722 patients, based on only 49 deaths)	left ventricular remodeling [2]
CCCCc1nc(Cl)c(CO)n1Cc1ccc(-c2ccccc2-c2nn[nH]n2)cc1 [losartan]	no significant differences	statistically significant reduction	–
C[C@H](CS)C(=O)N1CCC[C@H]1C(=O)O [captopril]	–	–	improvement
